Measured values published in ChEMBL document CHEMBL1128469, “Synthesis and biochemical evaluation of adenosylspermidine, a nucleoside-polyamine adduct inhibitor of spermidine synthase” (J Med Chem, 1995).

Columns and labels:
[1] = biological target: Spermine synthase (Rattus norvegicus); test: Inhibition of Spermidine aminopropyltransferase (SAPT) in rat liver.
Spermidine synthase = biological target: T1, Spermidine synthase (Rattus norvegicus, UniProt Q99MI5); test: Inhibition of Putrescine aminopropyltransferase (PAPT) in rat liver.
T1 sequence (Q99MI5 whole entry): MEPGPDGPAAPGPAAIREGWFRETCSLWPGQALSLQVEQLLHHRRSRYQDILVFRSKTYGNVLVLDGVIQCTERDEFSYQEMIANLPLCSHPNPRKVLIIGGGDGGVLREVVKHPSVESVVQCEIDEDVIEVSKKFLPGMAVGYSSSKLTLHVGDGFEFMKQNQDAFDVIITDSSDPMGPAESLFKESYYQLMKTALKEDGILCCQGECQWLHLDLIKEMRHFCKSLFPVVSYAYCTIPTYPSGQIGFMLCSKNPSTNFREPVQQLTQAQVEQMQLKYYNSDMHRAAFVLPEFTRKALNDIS

Ornithine decarboxylase = biological target: T2, Ornithine decarboxylase (Rattus norvegicus, UniProt P09057); test: Inhibition of Ornithine decarboxylase in rat liver; Not inhibited
T2 sequence (P09057 whole entry): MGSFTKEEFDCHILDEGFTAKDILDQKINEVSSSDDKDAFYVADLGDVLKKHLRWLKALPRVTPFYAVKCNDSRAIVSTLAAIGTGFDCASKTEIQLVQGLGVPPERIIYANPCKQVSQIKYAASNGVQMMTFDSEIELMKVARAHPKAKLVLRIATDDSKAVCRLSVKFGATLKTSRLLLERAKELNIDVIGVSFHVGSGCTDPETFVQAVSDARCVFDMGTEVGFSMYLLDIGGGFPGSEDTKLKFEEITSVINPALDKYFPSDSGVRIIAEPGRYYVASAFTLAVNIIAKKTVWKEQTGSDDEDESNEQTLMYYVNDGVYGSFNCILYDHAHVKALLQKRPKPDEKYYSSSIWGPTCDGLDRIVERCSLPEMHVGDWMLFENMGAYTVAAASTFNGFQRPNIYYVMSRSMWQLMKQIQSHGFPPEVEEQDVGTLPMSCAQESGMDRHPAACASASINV

[2] = biological target: T3, S-adenosylmethionine decarboxylase proenzyme (Homo sapiens, UniProt P17707); test: Inhibitory activity against S-adenosyl-L-methionine decarboxylase was determined; NI means No inhibition
T3 sequence (P17707 whole entry): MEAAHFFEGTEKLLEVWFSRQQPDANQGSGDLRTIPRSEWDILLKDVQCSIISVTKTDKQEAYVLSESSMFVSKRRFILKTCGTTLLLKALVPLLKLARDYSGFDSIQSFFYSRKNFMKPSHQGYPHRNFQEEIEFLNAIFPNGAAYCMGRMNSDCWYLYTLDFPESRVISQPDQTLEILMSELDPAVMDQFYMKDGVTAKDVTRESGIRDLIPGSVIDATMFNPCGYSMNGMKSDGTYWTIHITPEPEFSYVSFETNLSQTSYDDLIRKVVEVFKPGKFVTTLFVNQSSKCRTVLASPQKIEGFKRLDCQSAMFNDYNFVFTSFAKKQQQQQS

IC50 [1] [nM]	IC50 (Spermidine synthase) [nM]	IC50 (Ornithine decarboxylase)	IC50 [2]	Structure (SMILES)
50	> 10000			NCCCNCCCCCC(CCN)SC[C@H]1OC(n2cnc3c(N)ncnc32)[C@H](O)[C@@H]1O (some centres undefined)
		No inhibition	Not Active	NCCCCNC(CCN)CC[C@H]1OC(n2cnc3c(N)ncnc32)[C@H](O)[C@@H]1O (some centres undefined)
